Test [1] concerns the target T1, caspase-2 (Homo sapiens, UniProt P42575).
T1 construct: purchased Biomol (Exeter, UK)
The test is described as follows: Caspase inhibition assay, second-order inactivation rate. The format is biochemical. How it is done:
(§1) Active recombinant caspase-1, -3, -4, -7 and -8 were prepared as described previously. Caspase-2 was purchased from Biomol (Exeter, UK), caspase-6 from BD Biosciences (Oxford, UK), caspase-9 from Europa Bioproducts Ltd. (Cambridge, UK) and caspase-10 from Chemicon International Inc. (Harrow, UK). Cathepsin B and granzyme B were purchased from Merck Biosciences Ltd. (Nottingham, UK). Fluorogenic protease substrates were purchased from Bachem Ltd. (St. Helens, UK). All reactions were carried out at 37°C using a Molecular Devices (Wokingham, UK) Gemini plate-reader at 460 nm (excitation wavelength of 390 nm). Caspase inhibition assays were conducted, with minor modifications, as described by Margolin and colleagues. Irreversible kinetics were analysed by calculations of second-order inactivation rate constants (k) using GraphPad (La Jolla, CA, USA) Prism 4.0 software. A larger number for an inactivation rate constant indicates a greater degree of inactivation. To determine the inhibitory effect on cathepsin B, 4.25 nM of the enzyme were added to 250 μM z-RR-AMC in 10 mM 2-morpholino-ethanesulfonic acid pH 6.0, 1 mM DTT, 1 mM EDTA and 0.03% Brij35 in the presence or absence of VX-166 and the reaction monitored continuously over 15 minutes. Granzyme B was assayed, with minor modifications, as described by Thornberry and colleagues. Additional counterscreening against a panel of 83 additional enzymes, ion channels and receptors was carried out at MDS Pharma Services (Bothell, WA, USA).

In test [2] the target is T2, caspase-8 (Homo sapiens, UniProt Q14790).
T2 construct: Active recombinant caspase-1, -3, -4, -7 and -8 were prepared as described previously; made in house
T2 sequence (Q14790 217-374 limits assumed): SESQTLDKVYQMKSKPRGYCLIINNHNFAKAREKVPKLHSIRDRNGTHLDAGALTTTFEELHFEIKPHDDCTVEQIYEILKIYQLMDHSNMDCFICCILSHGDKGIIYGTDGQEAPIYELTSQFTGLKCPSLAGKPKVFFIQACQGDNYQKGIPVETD
T2 sequence (Q14790 385-479 limits assumed): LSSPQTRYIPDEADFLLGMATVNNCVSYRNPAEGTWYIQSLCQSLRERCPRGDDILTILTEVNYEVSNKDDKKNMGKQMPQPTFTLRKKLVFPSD
The test is described as above. The format is biochemical. The settings on record: recombinant caspase-8, 37°C, n = 4; read-out: Second order inactivation rate constant K. The method, then: as §1

In test [3] the target is T3, caspase-9 (Homo sapiens, UniProt P55211).
T3 construct: purchased Europa Bioproducts Ltd. (Cambridge, UK)
T3 sequence (P55211 whole entry): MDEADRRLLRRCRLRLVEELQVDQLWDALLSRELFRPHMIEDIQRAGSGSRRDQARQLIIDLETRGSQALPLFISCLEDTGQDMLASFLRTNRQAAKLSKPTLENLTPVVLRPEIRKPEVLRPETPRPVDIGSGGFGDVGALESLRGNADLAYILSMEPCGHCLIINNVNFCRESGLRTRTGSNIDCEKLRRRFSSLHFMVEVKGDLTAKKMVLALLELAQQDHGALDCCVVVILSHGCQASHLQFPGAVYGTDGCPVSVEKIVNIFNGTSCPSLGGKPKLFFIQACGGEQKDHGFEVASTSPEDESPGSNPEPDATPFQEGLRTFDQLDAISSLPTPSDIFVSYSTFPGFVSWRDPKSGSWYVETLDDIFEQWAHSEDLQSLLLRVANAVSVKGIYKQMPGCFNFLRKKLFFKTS
Described as above. The format is biochemical. Conditions: recombinant caspase-9, 37°C, n = 4; read-out: Second order inactivation rate constant K. How it is done: as §1

In test [4] the test system is thymocytes. Briefly: CLP rat, thymocyte apoptosis by flow cytometry. The format is in vivo. The settings on record: 20 hours, 25 mg/ml pump, n = 10. How it is done: CLP studies were performed in accordance with the National Institutes of Health guidelines for the use of experimental animals and were approved by the Institutional Animal Care and Use Committee of the Feinstein Institute for Medical Research. Adult male Sprague-Dawley rats (weighing 275 to 325 g, Charles River Laboratories, Wilmington, MA, USA) were fasted overnight then anaesthetised with isoflurane. The caecum was exposed via a 2 cm midline incision. It was ligated just distal to the ileocaecal valve, then punctured twice with an 18-gauge needle and gently squeezed to release a small amount of faecal material to ensure patency of the perforation sites before the abdominal incision was closed. Sham-operated rats underwent the same procedure with the exception that the caecum was neither ligated nor punctured. Animals received subcutaneous fluids (30 ml/kg saline) immediately after the procedure. No antibiotics were administered. In the 7 and 10 day survival studies animals were re-anaesthetised 20 hours after CLP, the perforated caecum was removed and the abdominal cavity washed twice with 40 ml of warm, sterilised saline. The abdominal cavity was closed, anaesthetics withdrawn and rats returned to their cages where they were allowed free access to food and water. In the 20 hour endpoint study the caecum was not removed. […]
Rat PBMC were isolated from heparinised blood by Ficoll Paque (GE Healthcare Bio-Sciences Corp., Piscataway, NJ, USA) density gradient centrifugation and washed three times with PBS (Invitrogen, Carlsbad, CA, USA). […] Cells were then washed twice in PBS, counted and reconstituted in Ca^2+-rich Annexin-V binding buffer (BD Biosciences, San Jose, CA, USA) at a concentration of 1 × 10^7 cells/ml. […] Cells were then analysed by flow cytometry with the FACS-Calibur (BD Biosciences, San Jose, CA, USA) and percentages of viable (Annexin-V^-/PI^-), early apoptotic (Annexin-V^+/PI^-), late apoptotic (Annexin-V^+/PI^+) and necrotic (Annexin-V^-/PI^+) cells were determined.
In general terms: A flow cytometer gives signals particle by particle.

Entries after “also recorded” stand apart in the source; their conditions may differ. Read-outs that look alike come from different tables or passages of the source.

T1 sequence (P42575 whole entry): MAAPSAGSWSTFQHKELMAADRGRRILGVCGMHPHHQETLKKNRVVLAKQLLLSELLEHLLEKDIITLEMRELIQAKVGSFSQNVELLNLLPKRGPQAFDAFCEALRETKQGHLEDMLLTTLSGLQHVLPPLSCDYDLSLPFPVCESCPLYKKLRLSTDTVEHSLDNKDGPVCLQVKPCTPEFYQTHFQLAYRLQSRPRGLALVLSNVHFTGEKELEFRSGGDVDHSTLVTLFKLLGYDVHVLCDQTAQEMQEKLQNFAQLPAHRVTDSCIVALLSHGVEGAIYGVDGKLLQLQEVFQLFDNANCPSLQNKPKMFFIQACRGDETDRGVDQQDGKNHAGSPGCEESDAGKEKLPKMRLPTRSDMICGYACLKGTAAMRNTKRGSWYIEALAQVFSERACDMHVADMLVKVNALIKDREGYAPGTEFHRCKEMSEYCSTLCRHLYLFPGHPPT

In the case of `CCC(C(=O)NC(CC(=O)O)C(=O)COc1c(F)c(F)cc(F)c1F)n1cccc(NC(=O)OC)c1=O` (stereo not shown) [VX-166], the kinact/KI in test [1] (caspase-2, text, read-out: second order inactivation rate constant (k)) was 6000 M⁻¹ s⁻¹; in test [1] (read-out: Second order inactivation rate constant K), 6190 ± 510 M⁻¹ s⁻¹; in test [2], 194000 ± 52000 M⁻¹ s⁻¹; in test [3], 131000 ± 21000 M⁻¹ s⁻¹. For the same compound, the “level of necrotic thymocytes between groups” value in test [4] was “remained unchanged”. Moreover, the “percentage of early apoptotic thymocytes vs vehicle CLP group” value in test [4] is “significantly inhibited thymic atrophy and lymphocyte apoptosis; also recorded: reduced the percentage of early apoptotic thymocytes”. For the same compound, the “percentage of viable thymocytes vs vehicle CLP group” value in test [4] is “significantly increased the percentage of viable cells”.

The values above are taken from PMC2784364, “VX-166: a novel potent small molecule caspase inhibitor as a potential therapy for sepsis” (Critical Care, 2009).
